Assay results as given in patent US20260209220A1, “SUBSTITUTED TETRAHYDROPYRROLO-PYRIDINONE COMPOUNDS AND THEIR USE IN TREATING MEDICAL CONDITIONS” (Karuna Therapeutics, Inc., priority 2022, published 2026).

Legend:
hM4 receptors = target: T1, hM4 receptors (Homo sapiens, UniProt P08173); experiment: Human M4 PAM PERK assay (CHO cells, TR-FRET, with EC20 acetylcholine); format: cell-based
T1 construct: expressed in transfected cells; host or cells: CHO cells
T1 sequence (P08173 1-479): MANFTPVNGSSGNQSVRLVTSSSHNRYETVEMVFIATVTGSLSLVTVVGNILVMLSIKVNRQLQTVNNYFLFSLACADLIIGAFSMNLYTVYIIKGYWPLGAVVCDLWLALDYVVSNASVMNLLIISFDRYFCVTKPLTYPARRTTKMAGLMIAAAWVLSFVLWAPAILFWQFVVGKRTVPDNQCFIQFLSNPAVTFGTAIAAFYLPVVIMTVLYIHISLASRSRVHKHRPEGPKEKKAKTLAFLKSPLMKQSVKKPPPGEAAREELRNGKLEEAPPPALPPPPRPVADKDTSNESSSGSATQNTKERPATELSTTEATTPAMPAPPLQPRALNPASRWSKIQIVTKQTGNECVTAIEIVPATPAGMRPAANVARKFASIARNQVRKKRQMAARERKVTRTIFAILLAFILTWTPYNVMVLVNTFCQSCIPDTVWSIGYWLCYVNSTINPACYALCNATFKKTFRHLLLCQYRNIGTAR
Description: (§1) Chinese hamster ovary (CHO) cells expressing either hM4 or rM4 receptors were frozen in assay ready vials (5×10^6 cells/vial) after bulking-up in culture. The day before an assay, vial(s) were thawed and cells seeded in 384 well white proxiplates at 1000/well for hM4 cells and at 2000/well for rM4 cells, in 10 μL of growth media (Hams/F12 with glutamax and 10% FCS) and incubated overnight at 37° C./5% CO2.
(§2) On the following morning, the growth media was removed by ‘flicking out’ over a bin, patting the inverted plate onto tissue, and then replacing with 10 μL of wash media (Hams/F12 with glutamax and 8 mM HEPES, NB: serum free). Then, the wash media was removed in the same way and replaced with 8 μL/well of the serum free media. Plates were then re-incubated for a further 4 hours at 37° C./5% CO2.
(§3) Compounds for testing were solubilized to 10 mM in DMSO and compound addition plates, consisting of ten-point concentration response curves (CRC) in duplicate points (10 μM top concentration, ½ log dilution series), were prepared by acoustic dispensing and the compound management group.
(§4) After the 4-hour incubation in serum free media, a 4 μL aliquot of the 3×compound solution containing an EC20 of acetylcholine (10 nM final concentration) was added to the cell plate using a 384 well plate to plate transfer. Then, the plate lid was replaced, and the cells incubated for 5 mins at 37° C./5% CO2. Following this final incubation, all cellular processes were stopped by the addition of 4 μL/well of lysis and blocking buffer and plates were incubated for 30 minutes at RT on an orbital shaker (gentle setting). Then, a final addition of 4 μL/well of antibody detection mix, containing both the Europium-Cryptate (donor) and d2 (acceptor) tagged detection components, was added followed by a further 2-hour incubation at RT, and then the plate was read using a TR-FRET (time resolved fluorescence resonance energy transfer) based protocol.

human M4 receptor = target: T2, human M4 receptor (Homo sapiens, UniProt P08173); experiment: M4 GTPγS PAM assay (CHO-K1 membranes, 35S-GTP binding, with EC20 acetylcholine); format: biochemical; details: with EC20 acetylcholine (40 nM)
T2 construct: expressed in transfected cells; host or cells: CHO-K1 cells (membranes)
T2 sequence (P08173 1-479): T1 sequence (P08173 1-479)
Description: The M4 GTPγS PAM method was used. Membranes were prepared for GTPgS binding assays from CHO-K1 cells stably expressing human M4 receptor. Briefly, cells were grown in 5-layer cell culture flasks. Cells were washed with 50 mL of PBS and then dissociated with 0.05% trypsin. Dissociated cells were then collected by centrifugation at 650×g for 8 minutes at 4° C. Pellets were washed again in PBS by centrifugation and resuspended in 30 mL of 20 mM HEPES, 10 mM EDTA, pH 7.4. After sitting on ice for 30 min, membranes were collected by centrifugation at 50000×g for 15′ at 4° C., resuspended in 30 mL of 20 mM HEPES, 0.1 mM EDTA, pH 7.4 and collected again by centrifugation. Pellets were then washed twice by centrifugation in 30 mL of 20 mM HEPES, pH 7.4, and stored at −80° C. until the day of the assay. On the day of the assay, pellets were thawed on ice and resuspended in 1 mL of 20 mM HEPES, pH 7.4, 10 mM MgCl2, 100 mM NaCl using dounce homogenization. Membrane protein concentration is determined by BCA protein assay (Promega, Madison, WI) according to Promega guidelines.
On the day of the assay, serial dilutions of test PAM compounds were brought up in assay buffer (20 mM HEPES, 10 mM MgCl2, 100 mM NaCl) at 4X final assay concentration. […] of membrane homogenates (containing […] of membrane protein) were prepared in assay buffer supplemented with GDP at […] final assay concentration (final assay concentration of GDP is 5 μM for M2 and 0.1 μM for M4) and dispensed into 96 well polypropylene, U-bottom Greiner plates. 25 ml of vehicle or test PAM compound at 4× of final assay concentration diluted in the assay buffer were added to membrane and plates are incubated for 10-15 minutes at room temperature with gentle shaking. Then, […] of EC20 acetylcholine in assay buffer at 4× final assay concentration was added to assay plates (EC20 final assay concentrations was 40 nM for human M4).
Plates were then incubated, with shaking, for an additional 10-15 minutes. […] of 0.4 nM 35S-GTP (Perkin Elmer, Waltham, MA) in assay buffer was added to assay mixtures. The binding reaction is left on the shaker for 1 hour at room temperature. Membranes in assay reactions were then transferred to GF/C filter plates (Unifilter, Perkin Elmer) and washed three times using a FilterMate Harvester (Perkin Elmer) with cold assay buffer containing no GDP. Filter plates were then dried at 40° C. overnight followed by the addition of […] of Beta Plate Scintillation liquid. Plates are top and bottom sealed before being read on TopCount scintillation counter (Perkin Elmer, Waltham, MA).

rM4 receptors = target: T3, rM4 receptors (Rattus norvegicus, UniProt P08485); experiment: Rat M4 PAM PERK assay (CHO cells, TR-FRET, with EC20 acetylcholine); format: cell-based
T3 construct: expressed in transfected cells; host or cells: CHO cells
T3 sequence (P08485 1-478): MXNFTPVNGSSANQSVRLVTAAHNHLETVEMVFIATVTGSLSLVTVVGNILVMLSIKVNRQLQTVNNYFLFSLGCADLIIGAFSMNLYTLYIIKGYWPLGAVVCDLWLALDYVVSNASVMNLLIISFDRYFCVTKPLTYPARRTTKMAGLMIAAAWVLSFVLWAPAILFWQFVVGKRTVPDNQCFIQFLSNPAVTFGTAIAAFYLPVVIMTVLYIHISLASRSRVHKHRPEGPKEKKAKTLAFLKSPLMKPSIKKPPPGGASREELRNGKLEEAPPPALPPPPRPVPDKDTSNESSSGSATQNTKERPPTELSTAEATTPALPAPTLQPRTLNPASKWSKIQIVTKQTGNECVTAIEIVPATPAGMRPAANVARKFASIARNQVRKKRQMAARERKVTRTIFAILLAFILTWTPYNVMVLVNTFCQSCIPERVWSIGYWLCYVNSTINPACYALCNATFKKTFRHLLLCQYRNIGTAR
Description: as §1, §2, §3, §4

| SMILES | EC50 (hM4 receptors) [nM] | EC50 (human M4 receptor) [nM] | EC50 (rM4 receptors) [nM] |
| --- | --- | --- | --- |
| Cc1cc(=O)n(C)c2c1CN(C(=O)C(C)(C)C1CN(c3ccnc(C(F)(F)F)c3)C1)C2 [Compound I-41, 1,4-Dimethyl-6-(2-methyl-2-(1-(2-(trifluoromethyl)pyridin-4-yl)azetidin-3-yl)propanoyl)-1,5,6,7-tetrahydro-2H-pyrrolo[3,4-b]pyridin-2-one] | > 1000 | > 1000 | – |
| Cc1cc(=O)n(C)c2c1CN(C(=O)CC1CN(c3ccnc(OCC4CC4)c3)C1)C2 [Compound I-10] | < 50 | 50 to 200 | 200 to 1000 |
| CCc1c(C)c2c(n(C)c1=O)CN(C(=O)CC1CN(c3ccnc(C(F)(F)F)c3)C1)C2 [Compound I-107, 3-Ethyl-1,4-dimethyl-6-(2-(1-(2-(trifluoromethyl)pyridin-4-yl)azetidin-3-yl)acetyl)-1,5,6,7-tetrahydro-2H-pyrrolo[3,4-b]pyridin-2-one] | 50 to 200 | – | > 1000 |
| Cc1c2c(n(C)c(=O)c1C)CN(C(=O)CC1CN(c3ccc(C4CC4)c(F)c3)C1)C2 [Compound I-53] | < 50 | – | 50 to 200 |
| COc1cccc(N2CC(CC(=O)N3Cc4c(C)c(C)c(=O)n(C)c4C3)C2)c1 [Compound I-47] | 50 to 200 | – | 200 to 1000 |
| Cc1c2c(n(C)c(=O)c1Cl)CN(C(=O)CC1CN(c3ccccc3)C1)C2 [Compound I-71] | < 50 | – | 200 to 1000 |
| Cc1c2c(n(C)c(=O)c1C)CN(C(=O)CC1CN(c3ccc(OC(F)(F)F)cc3)C1)C2 [Compound I-52] | 50 to 200 | – | 50 to 200 |
| COc1c2c(n(C)c(=O)c1C)CN(C(=O)CC1CN(c3ccncn3)C1)C2 [Compound I-98] | < 50 | – | > 1000 |
| Cc1cc(=O)n(CC2CC2)c2c1CN(C(=O)CC1CN(c3ccnc(C(F)(F)F)c3)C1)C2 [Compound I-101, 1-(Cyclopropylmethyl)-4-methyl-6-(2-(1-(2-(trifluoromethyl)pyridin-4-yl)azetidin-3-yl)acetyl)-1,5,6,7-tetrahydro-2H-pyrrolo[3,4-b]pyridin-2-one] | 200 to 1000 | – | 200 to 1000 |
| Cc1cc(=O)n(C)c2c1CN(C(=O)CC1CN(c3ccc(F)c(F)c3)C1)C2 [Compound I-32] | 50 to 200 | – | 200 to 1000 |
| Cc1c2c(n(C)c(=O)c1Cl)CN(C(=O)CC1CN(c3cccc(C(F)(F)F)c3)C1)C2 [Compound I-73] | < 50 | – | 50 to 200 |
| COc1cc(N2CC(CC(=O)N3Cc4c(C)c(C)c(=O)n(C)c4C3)C2)cc(C(F)(F)F)n1 [Compound I-54] | 200 to 1000 | – | 200 to 1000 |
| Cc1c2c(n(C)c(=O)c1F)CN(C(=O)CC1CN(c3ccc(F)c(C(F)(F)F)c3)C1)C2 [Compound I-89] | 50 to 200 | – | 50 to 200 |
| COc1cncc(N2CC(CC(=O)N3Cc4c(C)c(Cl)c(=O)n(C)c4C3)C2)c1 [Compound I-75] | < 50 | – | > 1000 |
| Cc1c2c(n(C)c(=O)c1Cl)CN(C(=O)CC1CN(c3ccncn3)C1)C2 [Compound I-70] | < 50 | – | 200 to 1000 |
| Cc1cc(=O)n(C2CC2)c2c1CN(C(=O)CC1CN(c3ccnc(C(F)(F)F)c3)C1)C2 [Compound I-103, 1-Cyclopropyl-4-methyl-6-(2-(1-(2-(trifluoromethyl)pyridin-4-yl)azetidin-3-yl)acetyl)-1,5,6,7-tetrahydro-2H-pyrrolo[3,4-b]pyridin-2-one] | 200 to 1000 | – | > 1000 |
| Cc1c2c(n(C)c(=O)c1Cl)CN(C(=O)CC1CN(c3cncnc3)C1)C2 [Compound I-69] | < 50 | – | 50 to 200 |
| Cc1c2c(n(C)c(=O)c1F)CN(C(=O)CC1CN(c3cccc(F)c3F)C1)C2 [Compound I-87] | < 50 | – | 50 to 200 |
| Cc1c2c(n(C)c(=O)c1C(F)(F)F)CN(C(=O)CC1CN(c3cccnc3)C1)C2 [Compound I-108, 1,4-Dimethyl-6-(2-(1-(pyridin-3-yl)azetidin-3-yl)acetyl)-3-(trifluoromethyl)-1,5,6,7-tetrahydro-2H-pyrrolo[3,4-b]pyridin-2-one] | 50 to 200 | – | > 1000 |
| Cc1c2c(n(C)c(=O)c1C1CC1)CN(C(=O)CC1CN(c3ccnc(C(F)(F)F)c3)C1)C2 [Compound I-109, 3-Cyclopropyl-1,4-dimethyl-6-(2-(1-(2-(trifluoromethyl)pyridin-4-yl)azetidin-3-yl)acetyl)-1,5,6,7-tetrahydro-2H-pyrrolo[3,4-b]pyridin-2-one] | 50 to 200 | – | 200 to 1000 |
| COc1c2c(n(C)c(=O)c1C)CN(C(=O)CC1CN(c3ccnc(C(F)(F)F)c3)C1)C2 [Compound I-97, 4-Methoxy-1,3-dimethyl-6-(2-(1-(2-(trifluoromethyl)pyridin-4-yl)azetidin-3-yl)acetyl)-1,5,6,7-tetrahydro-2H-pyrrolo[3,4-b]pyridin-2-one] | < 50 | – | 200 to 1000 |
| Cc1c2c(n(CC(F)(F)F)c(=O)c1Cl)CN(C(=O)CC1CN(c3cncnc3)C1)C2 [Compound I-96] | 50 to 200 | – | 200 to 1000 |
| Cc1cc(=O)n(C)c2c1CN(C(=O)CC1CN(c3ccc(C(F)(F)F)cc3)C1)C2 [Compound I-5] | < 50 | – | > 1000 |
| Cc1cc(=O)n(C)c2c1CN(C(=O)CC1CN(c3ccc(S(C)(=O)=O)cc3)C1)C2 [Compound I-2, 1,4-Dimethyl-6-(2-(1-(4-(methylsulfonyl)phenyl)azetidin-3-yl)acetyl)-1,5,6,7-tetrahydro-2H-pyrrolo[3,4-b]pyridin-2-one] | 50 to 200 | – | > 1000 |
